The record followed here is US20110130380A1, “Heteroaryl Kinase Inhibitors” (priority 2009, published 2011).

This assay concerns the target Cdk9/cyclinT1 (Homo sapiens, UniProt P50750). Description: Cdk9/cyclinT1 IMAP Protocol (fluorescence polarization kinase assay). The settings on record: Cdk9_cyclinT1_IC50, Table V; generated using one of the two Cdk9/cyclinT1 assays (IMAP or Alpha Screen), not stated which; ATP 6 uM. (Polarisation of emitted light reports the rotation of a fluorescent probe.)

The structures appear in SMILES notation.

Chain of Cdk9/cyclinT1 (P50750 whole entry): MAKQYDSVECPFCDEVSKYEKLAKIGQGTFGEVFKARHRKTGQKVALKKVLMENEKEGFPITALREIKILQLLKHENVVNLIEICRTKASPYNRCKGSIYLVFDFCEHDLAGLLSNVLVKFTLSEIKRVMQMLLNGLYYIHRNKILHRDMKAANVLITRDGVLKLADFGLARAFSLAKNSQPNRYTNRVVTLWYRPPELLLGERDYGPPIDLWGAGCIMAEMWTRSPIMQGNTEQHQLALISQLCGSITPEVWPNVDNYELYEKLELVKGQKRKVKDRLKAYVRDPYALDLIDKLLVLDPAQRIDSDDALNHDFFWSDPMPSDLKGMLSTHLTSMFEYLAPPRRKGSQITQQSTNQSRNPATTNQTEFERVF
Chain of Cdk9/cyclinT1 (O60563 whole entry partner): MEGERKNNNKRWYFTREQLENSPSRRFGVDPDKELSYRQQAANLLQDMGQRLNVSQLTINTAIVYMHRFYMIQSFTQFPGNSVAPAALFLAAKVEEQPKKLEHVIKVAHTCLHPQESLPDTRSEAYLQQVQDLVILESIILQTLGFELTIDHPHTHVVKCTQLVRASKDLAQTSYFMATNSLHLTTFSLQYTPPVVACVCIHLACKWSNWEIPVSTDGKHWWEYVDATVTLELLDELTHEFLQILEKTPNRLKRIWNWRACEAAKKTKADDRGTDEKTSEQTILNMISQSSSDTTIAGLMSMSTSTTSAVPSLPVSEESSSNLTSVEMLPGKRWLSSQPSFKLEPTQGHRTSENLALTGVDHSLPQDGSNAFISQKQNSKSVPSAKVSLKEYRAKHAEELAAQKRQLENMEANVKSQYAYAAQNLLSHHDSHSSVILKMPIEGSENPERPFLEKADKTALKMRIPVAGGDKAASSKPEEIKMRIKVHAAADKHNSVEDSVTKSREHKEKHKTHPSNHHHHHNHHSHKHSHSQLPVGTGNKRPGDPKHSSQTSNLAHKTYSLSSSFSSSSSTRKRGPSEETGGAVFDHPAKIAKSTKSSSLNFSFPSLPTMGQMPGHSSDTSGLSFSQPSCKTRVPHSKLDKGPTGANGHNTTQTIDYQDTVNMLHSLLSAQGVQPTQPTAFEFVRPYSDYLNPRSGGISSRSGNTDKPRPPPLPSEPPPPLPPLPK

The IC50 is the concentration that inhibits the measured activity by half. Higher therefore signals weaker potency. `C[C@@H]1CC[C@@H](C(=O)Nc2cc(-c3cccc(NC[C@@H]4CCOC(C)(C)C4)n3)c(Cl)cn2)CN1` (mixture of isomers) [Example 225, (3R,6R)-/(3S,6S)-6-Methyl-piperidine-3-carboxylic acid {5′-chloro-6-[((R)-2,2-dimethyl-tetrahydro-pyran-4-ylmethyl)-amino]-[2,4′]bipyridinyl-2′-yl}-amide] returned an IC50 of 1 nM.

Regarding `C[C@@H]1CC[C@@H](C(=O)Nc2cc(-c3cccc(NC[C@@H]4CCOC(C)(C)C4)n3)ccn2)CN1` (mixture of isomers) [Example 226, (3R,6R)-/(3S,6S)-6-Methyl-piperidine-3-carboxylic acid {6-[((R)-2,2-dimethyl-tetrahydro-pyran-4-ylmethyl)-amino]-[2,4′]bipyridinyl-2′-yl}-amide], the IC50 was found to be 1 nM.

Regarding `C[C@@H]1CC[C@@H](C(=O)Nc2cc(-c3cccc(NC[C@H]4CCOC(C)(C)C4)n3)c(Cl)cn2)CN1` (mixture of isomers) [Example 227, (3R,6R)-/(3S,6S)-6-Methyl-piperidine-3-carboxylic acid {5′-chloro-6-[((S)-2,2-dimethyl-tetrahydro-pyran-4-ylmethyl)-amino]-[2,4′]bipyridinyl-2′-yl}-amide], the midpoint of inhibition, the IC50, lay at 1 nM.

`C[C@@H]1CC[C@@H](C(=O)Nc2cc(-c3cccc(NC[C@H]4CCOC(C)(C)C4)n3)ccn2)CN1` (mixture of isomers) [Example 228, (3R,6R)-/(3S,6S)-6-Methyl-piperidine-3-carboxylic acid {6-[((S)-2,2-dimethyl-tetrahydro-pyran-4-ylmethyl)-amino]-[2,4′]bipyridinyl-2′-yl}-amide] returned an IC50 of 2 nM. This IC50 lies about 2-fold higher than the previous one.

The compound `N[C@@H]1CCC[C@H](C(=O)Nc2cc(-c3cccc(NCC4CCOCC4)n3)c(Cl)cn2)C1` (racemic) [Example 59, (1S,3R)-/(1R,3S)-3-Amino-cyclohexanecarboxylic acid {5′-chloro-6-[(tetrahydro-pyran-4-ylmethyl)-amino]-[2,4′]bipyridinyl-2′-yl}-amide] came in with an IC50 of 9 nM.

`C[C@H]1CNC[C@H](C(=O)Nc2cc(-c3cccc(NCC4CCOCC4)n3)c(Cl)cn2)C1` (racemic) [Example 104, (3R,5R)-/(3S,5S)-5-Methyl-piperidine-3-carboxylic acid {5′-chloro-6-[(tetrahydro-pyran-4-ylmethyl)-amino]-[2,4′]bipyridinyl-2′-yl}-amide] gave an IC50 of 46 nM.

With `C[C@@H]1CNC[C@H](C(=O)Nc2cc(-c3cccc(NCC4CCOCC4)n3)c(Cl)cn2)C1` (racemic) [Example 125, (3R,5S)-/(3S,5R)-5-Methyl-piperidine-3-carboxylic acid {5′-chloro-6-[(tetrahydro-pyran-4-ylmethyl)-amino]-[2,4′]bipyridinyl-2′-yl}-amide], the IC50 is 9 nM.

Compound `C[C@H]1CC[C@@H](C(=O)Nc2cc(-c3cccc(NCC4CCOCC4)n3)c(Cl)cn2)CN1` (racemic) [Example 126, (3R,6S)-/(3S,6R)-6-Methyl-piperidine-3-carboxylic acid {5′-chloro-6-[(tetrahydro-pyran-4-ylmethyl)-amino]-[2,4′]bipyridinyl-2′-yl}-amide] displayed a concentration for half-maximal inhibition (IC50) of 18 nM. Against the preceding compound, the IC50 is about 2-fold higher.

As to `C[C@@H]1CC[C@@H](C(=O)Nc2cc(-c3cccc(NCC4CCOCC4)n3)c(Cl)cn2)CN1` (racemic) [Example 127, (3R,6R)-/(3S,6S)-6-methyl-piperidine-3-carboxylic acid {5′-chloro-6-[(tetrahydro-pyran-4-ylmethyl)-amino]-[2,4′]bipyridinyl-2′-yl}-amide], the IC50 was 9 nM.

Compound `O=C(Nc1cc(-c2cccc(NCC3CCOCC3)n2)c(Cl)cn1)[C@H]1CNC[C@@H](C(F)(F)F)C1` (racemic) [Example 148, (3R,5S)-/(3S,5R)-5-Trifluoromethyl-piperidine-3-carboxylic acid {5′-chloro-6-[(tetrahydro-pyran-4-ylmethyl)-amino]-[2,4′]bipyridinyl-2′-yl}-amide] returned an IC50 of less than 8 nM.

Turning to `O=C(Nc1cc(-c2cccc(NCC3CCOCC3)n2)c(Cl)cn1)[C@H]1CNC[C@H](C(F)(F)F)C1` (racemic) [Example 149, (3R,5R)-/(3S,5S)-5-Trifluoromethyl-piperidine-3-carboxylic acid {5′-chloro-6-[(tetrahydro-pyran-4-ylmethyl)-amino]-[2,4′]bipyridinyl-2′-yl}-amide], it took 31 nM to reach half-maximal inhibition (IC50).

In the case of `O=C(Nc1cc(-c2cccc(NCC3CCOCC3)n2)c(Cl)cn1)[C@@H]1CC[C@H](C(F)(F)F)NC1` (racemic) [Example 160, (3R,6R)-/(3S,6S)-6-Trifluoromethyl-piperidine-3-carboxylic acid {5′-chloro-6-[(tetrahydro-pyran-4-ylmethyl)-amino]-[2,4′]bipyridinyl-2′-yl}-amide], the half-maximal inhibitory concentration (IC50) came to 11 nM.

For `O=C(Nc1cc(-c2cccc(NCC3CCOCC3)n2)c(Cl)cn1)[C@@H]1CC[C@@H](C(F)(F)F)NC1` (racemic) [Example 161, (3R,6S)-/(3S,6R)-6-Trifluoromethyl-piperidine-3-carboxylic acid {5′-chloro-6-[(tetrahydro-pyran-4-ylmethyl)-amino]-[2,4′]bipyridinyl-2′-yl}-amide], inhibition was half-maximal at 9 nM (IC50). The IC50 values of the last two compounds are within 1.5-fold of each other.

In the case of `CO[C@@H]1CNC[C@H](C(=O)Nc2cc(-c3cccc(NCC4CCOCC4)n3)c(Cl)cn2)C1` (racemic) [Example 184, (3R,5S)-/(3S,5R)-5-Methoxy-piperidine-3-carboxylic acid {5′-chloro-6-[(tetrahydro-pyran-4-ylmethyl)-amino]-[2,4′]bipyridinyl-2′-yl}-amide], the 50% inhibitory concentration (IC50) was 11 nM.

`COC[C@@H]1CC[C@H](C(=O)Nc2cc(-c3cccc(NCC4CCOCC4)n3)c(Cl)cn2)CN1` (racemic) [Example 220, (3S,6S)-/(3R,6R)-6-Methoxymethyl-piperidine-3-carboxylic acid {5′-chloro-6-[(tetrahydro-pyran-4-ylmethyl)-amino]-[2,4′]bipyridinyl-2′-yl}-amide] showed an IC50 of 14 nM.

Turning to `COC[C@@H]1CC[C@@H](C(=O)Nc2cc(-c3cccc(NCC4CCOCC4)n3)c(Cl)cn2)CN1` (racemic) [Example 221, (3R,6S)-/(3S,6R)-6-Methoxymethyl-piperidine-3-carboxylic acid {5′-chloro-6-[(tetrahydro-pyran-4-ylmethyl)-amino]-[2,4′]bipyridinyl-2′-yl}-amide], the IC50 was determined as 3 nM.

`C[C@@H]1CC[C@@H](C(=O)Nc2cc(-c3cccc(NCC4CCOCC4)n3)ccn2)CN1` (racemic) [Example 224, (3R,6R)-/(3S,6S)-6-Methyl-piperidine-3-carboxylic acid {6-[(tetrahydro-pyran-4-ylmethyl)-amino]-[2,4′]bipyridinyl-2′-yl}-amide]: the IC50 turned out to be 2 nM.

`CC[C@@H]1CC[C@@H](C(=O)Nc2cc(-c3cccc(NCC4CCOCC4)n3)c(Cl)cn2)CN1` (racemic) [Example 229, (3R,6R)-/(3S,6S)-6-Ethyl-piperidine-3-carboxylic acid {5′-chloro-6-[(tetrahydro-pyran-4-ylmethyl)-amino]-[2,4′]bipyridinyl-2′-yl}-amide] gave an IC50 of 1 nM.

With `CC[C@@H]1CC[C@@H](C(=O)Nc2cc(-c3cccc(NCC4CCOCC4)n3)ccn2)CN1` (racemic) [Example 230, (3R,6R)-/(3S,6S)-6-Ethyl-piperidine-3-carboxylic acid {6-[(tetrahydro-pyran-4-ylmethyl)-amino]-[2,4′]bipyridinyl-2′-yl}-amide], the IC50 was 2 nM. This IC50 is about 2-fold higher than that of the compound before.

For the compound `CC[C@@H]1CC[C@@H](C(=O)Nc2cc(-c3ccc(F)c(NCC4CCOCC4)n3)c(Cl)cn2)CN1` (racemic) [Example 250, (3R,6R)-/(3S,6S)-6-Ethyl-piperidine-3-carboxylic acid {5′-chloro-5-fluoro-6-[(tetrahydro-pyran-4-ylmethyl)-amino]-[2,4′]bipyridinyl-2′-yl}-amide], the IC50 amounted to 1 nM.

In the case of `CC[C@@H]1CC[C@@H](C(=O)Nc2cc(-c3ccc(F)c(NCC4CCOCC4)n3)ccn2)CN1` (racemic) [Example 251, (3R,6R)-/(3S,6S)-6-Ethyl-piperidine-3-carboxylic acid {5-fluoro-6-[(tetrahydro-pyran-4-ylmethyl)-amino]-[2,4′]bipyridinyl-2′-yl}-amide], half-maximal inhibition (IC50) required 1 nM.

Consider `CC[C@H]1CC[C@@H](C(=O)Nc2cc(-c3ccc(F)c(NCC4CCOCC4)n3)c(Cl)cn2)CN1` (racemic) [Example 252, (3R,6S)-/(3S,6R)-6-Ethyl-piperidine-3-carboxylic acid {5′-chloro-5-fluoro-6-[(tetrahydro-pyran-4-ylmethyl)-amino]-[2,4′]bipyridinyl-2′-yl}-amide], for which half-maximal inhibition (IC50) required 1 nM. That is a single-digit nanomolar value.

For the compound `CCN1CCCC(C(=O)Nc2cc(-c3cccc(NCC4CCOCC4)n3)c(Cl)cn2)C1` (single isomer, unassigned) [Example 14], the IC50 was determined as 811 nM.

`CCN1CCC[C@@H](C(=O)Nc2cc(-c3cccc(NCC4CCOCC4)n3)c(Cl)cn2)C1` (single isomer, unassigned) [Example 56] yielded an IC50 of 81 nM.

`O=C(Nc1cc(-c2cccc(NC[C@H]3CCCOC3)n2)c(Cl)cn1)[C@@H]1CCCNC1` (single isomer, unassigned) [Example 78] gave a concentration for half-maximal inhibition (IC50) of less than 8 nM.

As to `O=C(Nc1cc(-c2cccc(NC[C@@H]3CCCOC3)n2)c(Cl)cn1)[C@@H]1CCCNC1` (single isomer, unassigned) [Example 79], the half-maximal inhibitory concentration (IC50) was less than 8 nM.

Take `CC1(C)C[C@H](CNc2cccc(-c3cc(NC(=O)[C@@H]4CCCNC4)ncc3Cl)n2)CCO1` (single isomer, unassigned) [Example 115]: half-maximal inhibition (IC50) required 1 nM.

In the case of `CC1(C)C[C@@H](CNc2cccc(-c3cc(NC(=O)[C@@H]4CCCNC4)ncc3Cl)n2)CCO1` (single isomer, unassigned) [Example 116, (R)-piperidine-3-carboxylic acid {5′-chloro-6-[((S)-2,2-dimethyl-tetrahydro-pyran-4-ylmethyl)-amino]-[2,4′]bipyridinyl-2′-yl}-amide or (R)-piperidine-3-carboxylic acid {5′-chloro-6-[((R)-2,2-dimethyl-tetrahydro-pyran-4-ylmethyl)-amino]-[2,4′]bipyridinyl-2′-yl}-amide], the IC50 came to 2 nM.
